Data reported in PubChem BioAssay AID1963426 (Molecular Pharmacology Branch, DTP, NCI, 2024).

Tested on: 186277-243-T-J2-PDC complex spheroid growth, % test/control
Assay: Anticancer human tumor 186277-243-T-J2-PDC patient-derived colon adenocarcinoma cell line growth inhibition [Asc]
Conditions: for IC50: curve of first compound; for viability, T/C: stronger effect = lower value
Method in brief: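 Spheroid model: tumor line + HUVEC + hMSC. Single agents and combinations; top conc. at/near clinical Cmax (10 microM if undetermined), half-log dilutions. DMSO stocks at 800-fold test concentration.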

[1] = second compound 0.03 µM, first compound 0.0316 µM
[2] = second compound 0.03 µM, first compound 0.1 µM
[3] = second compound 0.03 µM, first compound 0.316 µM
[4] = second compound 0.03 µM, first compound 1 µM
[5] = second compound 0.03 µM, first compound 3.16 µM
[6] = second compound 0.03 µM, first compound 10 µM
[7] = second compound 0.0949 µM, first compound 0.0316 µM
[8] = second compound 0.0949 µM, first compound 0.1 µM
[9] = second compound 0.0949 µM, first compound 0.316 µM
[10] = second compound 0.0949 µM, first compound 1 µM
[11] = second compound 0.0949 µM, first compound 3.16 µM
[12] = second compound 0.0949 µM, first compound 10 µM
[13] = second compound 0.3 µM, first compound 0.0316 µM
[14] = second compound 0.3 µM, first compound 0.1 µM
[15] = second compound 0.3 µM, first compound 0.316 µM
[16] = second compound 0.3 µM, first compound 1 µM
[17] = second compound 0.3 µM, first compound 3.16 µM
[18] = second compound 0.3 µM, first compound 10 µM
[19] = second compound 0.949 µM, first compound 0.0316 µM
[20] = second compound 0.949 µM, first compound 0.1 µM
[21] = second compound 0.949 µM, first compound 0.316 µM
[22] = second compound 0.949 µM, first compound 1 µM
[23] = second compound 0.949 µM, first compound 3.16 µM
[24] = second compound 0.949 µM, first compound 10 µM
[25] = second compound 3 µM, first compound 0.0316 µM
[26] = second compound 3 µM, first compound 0.1 µM
[27] = second compound 3 µM, first compound 0.316 µM
[28] = second compound 3 µM, first compound 1 µM
[29] = second compound 3 µM, first compound 3.16 µM
[30] = second compound 3 µM, first compound 10 µM
[31] = second compound 0.03 µM, first compound 0.00316 µM
[32] = second compound 0.03 µM, first compound 0.01 µM
[33] = second compound 0.0949 µM, first compound 0.00316 µM
[34] = second compound 0.0949 µM, first compound 0.01 µM
[35] = second compound 0.3 µM, first compound 0.00316 µM
[36] = second compound 0.3 µM, first compound 0.01 µM
[37] = second compound 0.949 µM, first compound 0.00316 µM
[38] = second compound 0.949 µM, first compound 0.01 µM
[39] = second compound 3 µM, first compound 0.00316 µM
[40] = second compound 3 µM, first compound 0.01 µM
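Note: spheroids exposed to agents for 7 days.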
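Throughout, for viability, T/C: 100% = DMSO vehicle control wells.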

SMILES | IC50 (second compound 0.03 µM) | IC50 (second compound 0.0949 µM) | IC50 (second compound 0.3 µM) | IC50 (second compound 0.949 µM) | IC50 (second compound 3 µM) | viability, T/C [1] | viability, T/C [2] | viability, T/C [3] | viability, T/C [4] | viability, T/C [7] | viability, T/C [8] | viability, T/C [9] | viability, T/C [10] | viability, T/C [13] | viability, T/C [14] | viability, T/C [15] | viability, T/C [16] | viability, T/C [19] | viability, T/C [20] | viability, T/C [21] | other results
C=C(F)C(=O)N1CCN(c2nc(OCC3CCCN3C)nc3c2CCN(c2cccc4cccc(Cl)c24)C3)CC1CC#N (stereo not given) + CCN1C(C(=O)NC23CCC(C(=O)O)(CC2)CC3)C(c2cccc(Cl)c2F)C2(C(=O)Nc3cc(Cl)ccc32)C12CCCCC2 | 4750 nM | 4630 nM | 4000 nM | 1610 nM | < 31.6 nM | 123% | 107% | 109% | 99.8% | 92.7% | 92.5% | 103% | 88.6% | 76.3% | 82.5% | 86.1% | 73.2% | 58.2% | 57.5% | 61.4% | viability, T/C [5]: 79.5%; viability, T/C [6]: 0.44%; viability, T/C [11]: 75.2%; viability, T/C [12]: 0.22%; viability, T/C [17]: 63.7%; viability, T/C [18]: 0.17%; viability, T/C [22]: 64%; viability, T/C [23]: 35.6%; viability, T/C [24]: 0.22%; viability, T/C [25]: 38.4%; viability, T/C [26]: 37.3%; viability, T/C [27]: 38.8%; viability, T/C [28]: 37%; viability, T/C [29]: 23.6%; viability, T/C [30]: 0.69%
C=CC(=O)N1CCN(c2nc(=O)n(-c3c(C)ccnc3C(C)C)c3nc(-c4c(O)cccc4F)c(F)cc23)C(C)C1 (stereo not given) + CCN1C(C(=O)NC23CCC(C(=O)O)(CC2)CC3)C(c2cccc(Cl)c2F)C2(C(=O)Nc3cc(Cl)ccc32)C12CCCCC2 | > 10000 nM | > 10000 nM | > 10000 nM | 3740 nM | < 31.6 nM | 124% | 119% | 119% | 127% | 119% | 92.9% | 112% | 94.5% | 74.9% | 82.2% | 81.2% | 79.4% | 62.5% | 59.3% | 58.1% | viability, T/C [5]: 122%; viability, T/C [6]: 125%; viability, T/C [11]: 113%; viability, T/C [12]: 103%; viability, T/C [17]: 74.7%; viability, T/C [18]: 69.1%; viability, T/C [22]: 57.3%; viability, T/C [23]: 51.4%; viability, T/C [24]: 42%; viability, T/C [25]: 33.2%; viability, T/C [26]: 36%; viability, T/C [27]: 35.9%; viability, T/C [28]: 36.5%; viability, T/C [29]: 41%; viability, T/C [30]: 32.7%
CNC(C)C(=O)NC1CN(S(=O)(=O)c2cccc(S(=O)(=O)N3CCC4CCC(C(=O)NC(c5ccccc5)c5ccccc5)N4C(=O)C(NC(=O)C(C)NC)C3)c2)CCC2CCC(C(=O)NC(c3ccccc3)c3ccccc3)N2C1=O (stereo not given) + CCN1C(C(=O)NC23CCC(C(=O)O)(CC2)CC3)C(c2cccc(Cl)c2F)C2(C(=O)Nc3cc(Cl)ccc32)C12CCCCC2 | > 1000 nM | > 1000 nM | > 1000 nM | 415 nM | < 3.16 nM | 113% | 102% | 113% | 112% | 111% | 94.9% | 82.5% | 84.9% | 87% | 77.2% | 77.2% | 56.6% | 56.7% | 55.7% | 55.6% | viability, T/C [31]: 101%; viability, T/C [32]: 131%; viability, T/C [33]: 115%; viability, T/C [34]: 114%; viability, T/C [35]: 73.6%; viability, T/C [36]: 79.6%; viability, T/C [37]: 60.8%; viability, T/C [38]: 54.8%; viability, T/C [22]: 32.4%; viability, T/C [39]: 36.9%; viability, T/C [40]: 37.6%; viability, T/C [25]: 36.2%; viability, T/C [26]: 31.5%; viability, T/C [27]: 29.6%; viability, T/C [28]: 28.8%

These reach a lower IC50 (second compound 0.03 µM). Values come first.

IC50 (second compound 0.03 µM) | IC50 (second compound 0.0949 µM) | IC50 (second compound 0.3 µM) | IC50 (second compound 0.949 µM) | IC50 (second compound 3 µM) | SMILES | viability, T/C [1] | viability, T/C [2] | viability, T/C [3] | viability, T/C [4] | viability, T/C [7] | viability, T/C [8] | viability, T/C [9] | viability, T/C [10] | viability, T/C [13] | viability, T/C [14] | viability, T/C [15] | viability, T/C [16] | viability, T/C [19] | viability, T/C [20] | viability, T/C [21] | other results
119 nM | 35.4 nM | < 31.6 nM | < 31.6 nM | < 31.6 nM | C#Cc1c(F)ccc2cc(O)cc(-c3ncc4c(N5CC6CCC(C5)N6)nc(OCC56CCCN5CC(F)C6)nc4c3F)c12 (stereo not given) + CCN1C(C(=O)NC23CCC(C(=O)O)(CC2)CC3)C(c2cccc(Cl)c2F)C2(C(=O)Nc3cc(Cl)ccc32)C12CCCCC2 | 57.1% | 55.3% | 24.1% | 7.49% | 52.6% | 26.3% | 7.13% | 3.79% | 27.4% | 8.1% | 3.14% | 2.06% | 16.2% | 5.72% | 2.81% | viability, T/C [5]: 4.76%; viability, T/C [6]: 2.76%; viability, T/C [11]: 2.21%; viability, T/C [12]: 2.17%; viability, T/C [17]: 1.62%; viability, T/C [18]: 1.41%; viability, T/C [22]: 2.32%; viability, T/C [23]: 1.53%; viability, T/C [24]: 1.08%; viability, T/C [25]: 7.02%; viability, T/C [26]: 3.62%; viability, T/C [27]: 2.69%; viability, T/C [28]: 2.2%; viability, T/C [29]: 1.71%; viability, T/C [30]: 1.33%
25.8 nM | 18.9 nM | 12.9 nM | < 3.16 nM | < 3.16 nM | COc1c(OCCCN2CCOCC2)ccc2c3n(c(=NC(=O)c4cnc(N)nc4)nc12)CCN3 + CCN1C(C(=O)NC23CCC(C(=O)O)(CC2)CC3)C(c2cccc(Cl)c2F)C2(C(=O)Nc3cc(Cl)ccc32)C12CCCCC2 | 46.7% | 18.1% | 9.99% | 6.65% | 38.8% | 9.15% | 4.16% | 2.21% | 21.4% | 2.26% | 1.06% | 0.54% | 9.96% | 0.92% | 0.3% | viability, T/C [31]: 101%; viability, T/C [32]: 75.2%; viability, T/C [33]: 67.3%; viability, T/C [34]: 64%; viability, T/C [35]: 58.1%; viability, T/C [36]: 58.4%; viability, T/C [37]: 49.5%; viability, T/C [38]: 40.1%; viability, T/C [22]: 0.28%; viability, T/C [39]: 30.3%; viability, T/C [40]: 24.8%; viability, T/C [25]: 5.08%; viability, T/C [26]: 0.52%; viability, T/C [27]: 0.33%; viability, T/C [28]: 0.31%
